Calls of active or inactive are those of the source. The calls are words filed in the database; no cut-off is given here.
Experiments:
PLC-PRF-5 [1] = test: Antiproliferative activity against human PLC-PRF-5 cells after 48 hrs by MTT assay; conditions: PLC-PRF-5, 48 h
U-266 = test: Antiproliferative activity against human U266 cells after 48 hrs by MTT assay; conditions: U-266, 48 h
[2] = Antiproliferative activity against human 3AO cells after 48 hrs by MTT assay
[3] = Antiproliferative activity against human ES2 cells after 48 hrs by MTT assay; conditions: ES-2, 48 h
MDA-MB-231 = test: Antiproliferative activity against human MDA-MB-231 cells after 48 hrs by MTT assay; conditions: MDA-MB-231, 48 h
Aminopeptidase N = biological target: T1, Aminopeptidase N (Sus scrofa, UniProt P15145); test: Inhibition of porcine kidney microsomal CD13 using L-leucine-p-nitroanilide as substrate preincubated for 5 mins followed by substrate addition and measured after 30 mins by microplate reader analysis; format: microsomes, Microsome
T1 sequence (P15145 whole entry): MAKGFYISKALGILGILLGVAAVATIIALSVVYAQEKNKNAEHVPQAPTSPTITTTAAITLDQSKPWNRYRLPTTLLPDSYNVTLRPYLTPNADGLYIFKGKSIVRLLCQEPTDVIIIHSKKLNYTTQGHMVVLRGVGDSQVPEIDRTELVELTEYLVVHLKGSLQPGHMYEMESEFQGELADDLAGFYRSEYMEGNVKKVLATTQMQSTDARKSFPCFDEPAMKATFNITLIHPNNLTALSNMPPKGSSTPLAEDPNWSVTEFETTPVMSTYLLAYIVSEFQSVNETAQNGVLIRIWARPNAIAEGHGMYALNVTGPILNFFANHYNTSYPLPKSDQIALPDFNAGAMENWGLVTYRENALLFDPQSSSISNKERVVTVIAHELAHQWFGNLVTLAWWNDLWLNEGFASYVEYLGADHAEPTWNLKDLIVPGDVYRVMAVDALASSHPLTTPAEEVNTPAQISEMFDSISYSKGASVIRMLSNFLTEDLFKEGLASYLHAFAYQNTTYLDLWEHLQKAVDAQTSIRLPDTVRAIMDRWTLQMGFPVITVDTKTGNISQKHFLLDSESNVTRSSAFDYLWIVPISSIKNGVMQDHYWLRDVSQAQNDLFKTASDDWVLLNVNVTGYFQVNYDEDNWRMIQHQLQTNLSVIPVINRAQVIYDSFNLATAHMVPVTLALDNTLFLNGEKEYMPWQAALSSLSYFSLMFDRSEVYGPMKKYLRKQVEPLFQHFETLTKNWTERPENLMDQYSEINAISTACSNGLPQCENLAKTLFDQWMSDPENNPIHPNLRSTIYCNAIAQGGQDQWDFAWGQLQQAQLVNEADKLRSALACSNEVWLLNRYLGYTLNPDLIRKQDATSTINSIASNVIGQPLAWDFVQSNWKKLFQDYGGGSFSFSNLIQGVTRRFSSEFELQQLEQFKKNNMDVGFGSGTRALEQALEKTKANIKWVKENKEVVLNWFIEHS

KG-1 = test: Antiproliferative activity against human KG1 cells after 48 hrs by MTT assay; conditions: KG-1, 48 h
L02 = test: Antiproliferative activity against human HL7702 cells after 48 hrs by MTT assay; conditions: L02, 48 h
PLC-PRF-5 [4] = test: Inhibition of colony formation in human PLC-PRF-5 cells assessed as reduction in number of colonies at 0.2 uM after 2 weeks by Giemsa staining based inverted microscopic analysis; format: functional, cell-based
PLC-PRF-5 [5] = test: Induction of apoptosis in human PLC-PRF-5 cells assessed as late apoptotic cells at 2 uM after 48 hrs by Annexin V-FITC/propidium iodide staining-based flow cytometric analysis (reference value: 8.7 %); format: functional
PLC-PRF-5 [6] = test: Induction of apoptosis in human PLC-PRF-5 cells assessed as necrotic cells at 2 uM after 48 hrs by Annexin V-FITC/propidium iodide staining-based flow cytometric analysis (reference value: 6.1 %); format: functional
HUVEC = test: Antiangiogenic activity in HUVEC assessed as inhibition of capillary like tubular formation at 30 uM after 8 hrs by matrigel based tube formation assay; format: functional; conditions: Homo sapiens
Aorta = test: Antiangiogenic activity in Wistar rat thoracic aortic rings assessed as decrease in number of microvessels sprouting at 20 ug/ml treated every other day for 9 days; format: functional, tissue-based; conditions: dose 20.0 µg/ml, time 9.0 day
[7] = Prodrug conversion in human plasma assessed as release of active metabolites GEM and Ube measured within 120 mins at 37 degC by HPLC analysis; format: ADME, cell-free; conditions: 2 h
H22 [8] = test: Antitumor activity against mouse H22 cells transplanted in Kunming mouse assessed as tumor growth inhibition at 25 mg/kg, po administered every 4 days for 4 doses; format: functional, organism-based; conditions: time 4.0 day
PLC-PRF-5 [9] = test: Antitumor activity against human PLC-PRF-5 cells xenografted in BALB/c nude mouse assessed as inhibition of tumor growth by measuring T/C ratio at 25 mg/kg, po; format: functional
HepG2 = conditions: Homo sapiens, dose 25.0 mg/kg
Description: Antitumor activity against human HepG2 cells xenografted in BALB/c nude mouse assessed as inhibition of tumor growth at 25 mg/kg, po

U-937 = test: cells; conditions: Homo sapiens, U-937, 48 h
Description: Antiproliferative activity against human U937 cells after 48 hrs by MTT assay

PC-3 = test: cells; conditions: Homo sapiens, PC-3, 48 h
Description: Antiproliferative activity against human PC-3 cells after 48 hrs by MTT assay

HEL = test: cells; conditions: Homo sapiens, 48 h
Description: Antiproliferative activity against human HEL cells after 48 hrs by MTT assay

A549 = test: cells; conditions: Homo sapiens, A549, 48 h
HeLa = test: cells; conditions: Homo sapiens, 48 h
K562 = test: cells; conditions: Homo sapiens, K562, 48 h
H22 [10] = test: Antitumor activity against mouse H22 cells transplanted in Kunming mouse assessed as tumor growth inhibition at 25 mg/kg, ip administered every 4 days for 4 doses; format: functional, organism-based; conditions: time 4.0 day
PLC-PRF-5 [11] = test: Antitumor activity against human PLC-PRF-5 cells xenografted in BALB/c nude mouse assessed as inhibition of tumor growth by measuring T/C ratio at 25 mg/kg, ip; format: functional

SMILES | IC50 (PLC-PRF-5 [1]) [nM] | IC50 (U-266) [nM] | IC50 [2] [nM] | IC50 [3] [nM] | IC50 (MDA-MB-231) [nM] | IC50 (KG-1) [nM] | IC50 (L02) [nM] | Activity (PLC-PRF-5 [5]) [%] | Activity (PLC-PRF-5 [6]) [%] | IC50 (U-937) [nM] | IC50 (PC-3) [nM] | IC50 (HEL) [nM] | IC50 (A549) [nM] | IC50 (HeLa) [nM] | IC50 (K562) [nM] | also measured
CC(C)C[C@H](NC(=O)[C@@H](O)[C@H](N)Cc1ccccc1)C(=O)Nc1ccn([C@@H]2O[C@H](CO)[C@@H](O)C2(F)F)c(=O)n1.Cl | 1410 | 260 | 9730 | 280 | 1560 | 820 | 22100 | 18.4 | 10.7 | 80 | 260 | 610 | 660 | 5480 | 130 | IC50 (Aminopeptidase N): 8750 nM; Activity (PLC-PRF-5 [4]): Active; inhibition at 30 µM (HUVEC): 100%; Activity (Aorta): Active; Drug metabolism [7]: Metabolite_Detected; growth inhibition (GI) (H22 [8]): Active; T/C (PLC-PRF-5 [9]): 51%; inhibition (HepG2): Active
Nc1ccn([C@@H]2O[C@H](CO)[C@@H](O)C2(F)F)c(=O)n1 [GEMCITABINE] | 1530 | 220 | 5730 | 530 | 1670 | 860 | 5430 | 18 | 25 | 70 | 220 | 480 | 260 | 2740 | 110 | growth inhibition (GI) (H22 [10]): Active; T/C (PLC-PRF-5 [11]): 54%
CC(C)C[C@H](NC(=O)[C@@H](O)[C@H](N)Cc1ccccc1)C(=O)O [UBENIMEX] | > 500000 | > 500000 | > 500000 | > 500000 | > 500000 | > 500000 |  | 11 | 7.1 |  |  | > 500000 |  | > 500000 |  | 

Source: ChEMBL document CHEMBL4715769, “Discovery of a novel chimeric ubenimex-gemcitabine with potent oral antitumor activity” (Bioorg Med Chem, 2016)
